Type in all cases: in vivo, rat
Data set [1] is described as follows: Evaluation of pharmacokinetics after topical eye drops. Conditions: rats, topical eye drops 1 mg/mL in castor oil over four to seven days, expected trough, n = 2; for Mean concentration of test compound, Back of the eye / Mean concentration of test compound, Cornea / Mean concentration of test compound, Lacrimal gland and duct / Mean concentration of test compound, Lens and humor: wet tissue weight. The procedure: Evaluation of Pharmacokinetics
To evaluate the pharmacokinetics of test substances in vivo, these test substances are dissolved in appropriate formulation vehicles (e.g. castor oil). The test substances are then administered to rats topically as eye drops over four to seven days. Administered doses range usually between 0.1 to 5 mg/mL. Blood samples and ocular tissue samples are taken at the time of expected trough concentration, i.e. just before the next dosing would have occurred. Blood samples are retrieved via exsanguination in vials containing appropriate anticoagulants, such as lithium heparinate or potassium EDTA. Plasma is generated from the blood via centrifugation. Eyes are enucleated and briefly washed in PBS to remove possible remains of the topical formulation. Eyes are dissected and tissues of interest, e.g. cornea, lacrimal gland and duct, lens and humor and back of the eye tissue, are collected separately. Ocular tissues are pooled per individual animal, diluted in appropriate amounts of 0.9% NaCl in water and homogenized using a Tissuelyzer or equivalent system. The quantitative measurement of the test substances in the samples is performed using calibration curves in the respective matrices. The protein content of the samples is precipitated using acetonitrile or methanol. Thereafter, the samples are separated using HPLC in combination with reversed phase chromatography columns. The HPLC system is coupled to a triple quadrupole mass spectrometer via an electrospray interface. Particularly, HPLC was performed using a C18 column (e.g. Phenomenex Kinetex C18 5 mm 5 μm 2.1×50) and a mixture of 10 mM ammonium acetate pH6.8 and acetonitrile in a gradient with an increasing fraction of organic solvent. The retention time for the compound of example 2 was for example ca. 2.6 min.
Data: Mean concentration of test compound (μg/L of plasma or μg/kg of wet tissue weight), samples with concentrations below the lower limit of quantification (LOQ) are denoted as “<LOQ”, n corresponds to the number of the treated animals

Data set [2] concerns Sprague Dawley rats. As to the kind of experiment: Lacrimal gland removal model with pain behavior read out (wipe test). Conditions: rats after lacrimal gland removal; after two and four weeks of treatment, compared to vehicle (FIG. 1). How it is done: Lacrimal Gland Removal Model with Pain Behavior Read Out
(§1) Sprague Dawley rats were anesthetized by intraperitoneal injection of 75 mg/kg ketamine +7.5 mg/kg xylazine hydrochloride. After removal of the facial hair, a 2 mm incision was carefully made between temporal lid margin and zygomatic arch. Bluntly separating the underlying tissue, exposing the fascia covering the intra-orbital lacrimal gland, avoiding the nerves and blood vessels. A small incision was made on the fascia, and the intra-orbital gland was gently pulled out and excised. The incision was sutured with a 8-0 polysorb suture and the skin was closed with a 5-0 polysorb suture (Ethilon; Ethicon Inc, Somerville, N.J.). A 3 mm incision was made just below the earlobe, and the extra-orbital lacrimal gland was pulled out and excised along its stem. This incision was closed in a manner similar as described above.
Acclimate rat in a quiet, clean, clear cage for 15 minutes. Gently hold head of rat, add one drop of 5M NaCl in the rat right eye, and start count wipes (front limb wipe across the face) for 30 seconds. Repeat wipe test in left eye. Wash each eye with 10 ml NS. […] The number of eye wipes over a period of thirty seconds was determined for each animal and averaged at various timepoints. […]

The test system of data set [3] is Sprague Dawley rats. As to the kind of experiment: Lacrimal gland removal model, corneal nerve density measurement (IVCM). Conditions: rats after lacrimal gland removal; treatment started two weeks post removal, compared to vehicle (FIG. 2). The procedure:
as §1
Nerve Density Measurement: […]

As for `N#Cc1cnn(-c2ccc(NC(=O)Cc3ccccc3Cl)cc2S(N)(=O)=O)c1` [2-(2-Chlorophenyl)-N-[4-(4-cyano-1H-pyrazol-1-yl)-3-sulfamoylphenyl]acetamide, reference compound], in data set [1], the “Mean concentration of test compound, Plasma” value came to 2.37 ng/mL; the “Mean concentration of test compound, Back of the eye” value amounted to 14.5 µg/kg; the “Mean concentration of test compound, Cornea” value was 13.4 µg/kg; the “Mean concentration of test compound, Lacrimal gland and duct” value was 33.4 µg/kg. The “Mean concentration of test compound, Lens and humor” value in data set [1] was <4.0 µg/kg.
With `CC(=O)N(c1ccc(F)cc1)c1cc(NC(=O)Cc2cccc(F)c2Cl)ccn1` [Example 2, N-{4-[2-(2-chloro-3-fluorophenyl)acetamido]pyridin-2-yl}-N-(4-fluorophenyl)acetamide], the “Eye wipe count (5M NaCl, 30 seconds)” value in data set [2] was “no apparent further increase in wipe count”. In data set [1], the “Mean concentration of test compound, Plasma” value was found to be 0.4 ng/mL; the “Mean concentration of test compound, Back of the eye” value was 13.8 µg/kg; the “Mean concentration of test compound, Cornea” value amounted to 44.9 µg/kg; the “Mean concentration of test compound, Lacrimal gland and duct” value came to 17.4 µg/kg. For the same compound, the “Mean concentration of test compound, Lens and humor” value in data set [1] is 1.8 µg/kg. For the same compound, the “Corneal nerve density (fold difference from baseline)” value in data set [3] was “a decline in nerve density could be observed”.
